Columns and labels:
Settings in all cases: incubation time: 72 h
MDA-MB-436 [1] = assay: normalised response (% of control), CellTiter-Glo; higher = more viable cells (100 = DMSO, 0 = benzethonium chloride kill control)
In short: (§1)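 After 72 h with compound in 384-well plates, breast cancer cell lines seeded as 20 µl suspension were read for CellTox Green fluorescence at 485/520 nm. CellTiter-Glo luminescence was then read after 10 min at room temperature. Compound was present at 5 concentrations in 10-fold steps over a 10,000-fold range set per compound, and plates were normalised to 0.1 % DMSO (100) and a positive kill control (0). Values are normalised signals, each at a single concentration.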

CAL-51 [2] = assay: as above
In short: as §1

SK-BR-3 [3] = assay: as above
In short: as §1

HDQ-P1 [4] = assay: as above
In short: as §1

HCC1143 [5] = assay: as above
In short: as §1

MFM-223 [6] = assay: as above
In short: as §1

Hs578T [7] = assay: as above
In short: as §1

BT-474 [8] = assay: as above
In short: as §1

CAL-120 [9] = assay: as above
In short: as §1

CAL-85-1 [10] = assay: as above
In short: as §1

CAL-148 [11] = assay: as above
In short: as §1

DU-4475 [12] = assay: as above
In short: as §1

MDA-MB-468 [13] = assay: as above
In short: as §1

MCF-10A = assay: as above
In short: as §1

BT-549 [14] = assay: as above
In short: as §1

HCC1937 [15] = assay: as above
In short: as §1

MDA-MB-231 [16] = assay: as above
In short: as §1

MDA-MB-453 [17] = assay: as above
In short: as §1

HCC1599 [18] = assay: as above
In short: as §1

MDA-MB-436 [19] = assay: normalised viability (% of control), CellTiter-Blue; higher = more viable cells (100 = DMSO, 0 = benzethonium chloride kill control)
In short: (§2)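 Each entry is normalised viability at a single listed concentration within a series. It comes from breast cancer cell lines incubated 72 h with compound in 384-well plates, then measured with CellTiter-Blue fluorescence at 560/590 nm. Every plate was normalised between vehicle (100) and a positive kill control (0).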

CAL-51 [20] = assay: as above
In short: as §2

SK-BR-3 [21] = assay: as above
In short: as §2

HDQ-P1 [22] = assay: as above
In short: as §2

HCC1143 [23] = assay: as above
In short: as §2

MFM-223 [24] = assay: as above
In short: as §2

Hs578T [25] = assay: as above
In short: as §2

BT-474 [26] = assay: as above
In short: as §2

CAL-120 [27] = assay: as above
In short: as §2

CAL-85-1 [28] = assay: as above
In short: as §2

CAL-148 [29] = assay: as above
In short: as §2

DU-4475 [30] = assay: as above
In short: as §2

MDA-MB-468 [31] = assay: as above
In short: as §2

BT-549 [32] = assay: as above
In short: as §2

HCC1937 [33] = assay: as above
In short: as §2

MDA-MB-231 [34] = assay: as above
In short: as §2

MDA-MB-453 [35] = assay: as above
In short: as §2

HCC1599 [36] = assay: as above
In short: as §2

SMILES	normalised response (MDA-MB-436 [1])	normalised response (CAL-51 [2])	normalised response (SK-BR-3 [3])	normalised response (HDQ-P1 [4])	normalised response (HCC1143 [5])	normalised response (MFM-223 [6])	normalised response (Hs578T [7])	normalised response (BT-474 [8])	normalised response (CAL-120 [9])	normalised response (CAL-85-1 [10])	normalised response (CAL-148 [11])	normalised response (DU-4475 [12])	normalised response (MDA-MB-468 [13])	normalised response (MCF-10A)	normalised response (BT-549 [14])	normalised response (HCC1937 [15])	normalised response (MDA-MB-231 [16])	normalised response (MDA-MB-453 [17])	normalised response (HCC1599 [18])	normalised viability (MDA-MB-436 [19])	normalised viability (CAL-51 [20])	normalised viability (SK-BR-3 [21])	normalised viability (HDQ-P1 [22])	normalised viability (HCC1143 [23])	normalised viability (MFM-223 [24])	normalised viability (Hs578T [25])	normalised viability (BT-474 [26])	normalised viability (CAL-120 [27])	normalised viability (CAL-85-1 [28])	normalised viability (CAL-148 [29])	normalised viability (DU-4475 [30])	normalised viability (MDA-MB-468 [31])	normalised viability (BT-549 [32])	normalised viability (HCC1937 [33])	normalised viability (MDA-MB-231 [34])	normalised viability (MDA-MB-453 [35])	normalised viability (HCC1599 [36])
CC(C)C(=O)Nc1ccc([N+](=O)[O-])c(C(F)(F)F)c1 [Flutamide] (1 nM)	103%	113%	105%	101%	93.2%	98.4%	98.2%	98.5%	103%	96.7%	96.8%	97%	96%	103%	98.5%	94.7%	99%	113%	97.4%	94.7%	109%	98.1%	118%	90.7%	90.4%	134%	96.8%	93.6%	96.8%	114%	100%	96.1%	86.2%	65.1%	90.2%	104%	119%
NC(=O)c1cccc2cn(-c3ccc([C@@H]4CCCNC4)cc3)nc12 [MK-4827] (1 nM)	96.9%	99.9%	112%	100%	105%	101%	103%	113%	101%	102%	115%	98.1%	104%	102%	102%	102%	101%	99.3%	110%	80.8%	108%	95.5%	85.9%	92.1%	92.2%	94.2%	121%	90.2%	82.1%	105%	102%	91.7%	112%	97.3%	96%	97.8%	97.1%
NC(=O)NO [Hydroxyurea] (10 nM)	90.1%	74.9%	113%	97.3%	104%	105%	101%	98.6%	96.7%	98.5%	101%	106%	103%	110%	108%	91.6%	98.3%	110%	101%	109%	100%	52%	116%	102%	104%	107%	97.2%	98.9%	109%	107%	123%	112%	99.2%	95.8%	101%	105%	113%
C[C@]12C=CC(=O)C=C1CC[C@@H]1[C@@H]2C(=O)C[C@@]2(C)[C@H]1CC[C@]2(O)C(=O)CO [Prednisone] (1 nM)	110%	92.7%	109%	101%	101%	106%	97.1%	99.4%	109%	99.1%	106%	103%	104%	98.2%	99.8%	99.9%	98.5%	111%	100%	110%	99.5%	90.8%	98.1%	92.8%	96.2%	104%	126%	84.3%	100%	101%	110%	104%	105%	93.5%	95.9%	103%	113%
